Activity calls are given as the source filed them.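 Rule for the calls: active = compounds giving half or more protection of infected cells from virus-caused growth loss, again on retest; inactive = the rest.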 Where a SMILES comes first, the peptide text is derived from it. Bridges are numbered along the chain shown (N, C = ends). [ ]: non-standard residue; d: D form. The star is where a group is joined. ξ: configuration not given here. PhAc = O=C(Cc1ccccc1)*; ξP = O=C(O)C1CCCN1
Test system: CEM cells HIV-1 protection, formazan growth assay
Experiment: NCI AIDS Antiviral Assay
Details: for IC50: measured here: growth of uninfected CEM cells
Summary of the method: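 Five concentrations of each compound were applied to infected and uninfected human CEM cells. Protection from HIV-1 was judged from growth measured with a soluble formazan assay.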

SMILES	outcome	EC50 [µM]	IC50 [µM]
OCC(O)C(O)C(O)c1nn(-c2ccc(F)cc2)c2nc3cc(Cl)c(Cl)cc3nc12 (configuration not stated)	inactive		
Cc1cccc(C)c1NC(=O)C(=O)CC(=O)/C=C/c1ccccc1		> 776	389
O=C(CNc1cccc(Cl)c1)Nn1c(-c2ccccc2)nc2ccccc2c1=O		> 200	2.75
CC1=CC(C)(C)N=C2SC(COc3ccccc3)=NN12		> 200	34.7
CCOC(=O)/C=C/c1ccc(F)cc1		> 97.7	> 97.7
O=C(ONC(=O)[C@H]1C2C=CC(C2)[C@@H]1C(=O)NOC(=O)c1ccccc1)c1ccccc1		> 200	5.37
CC1=CC(=O)c2ccc3c4ccccc4n(C)c3c2C1=O		> 26.3	> 26.3
CCN(CC)c1ccc2cc(C(=O)Nc3ccccc3)c(=N)oc2c1		> 100	> 100
C=Cc1ccc(CC)cn1		> 200	> 200
Cc1c2c(cn1C)NC(=O)CN=C2c1ccccc1		> 200	> 200
O=C1CC(Br)C(c2ccccc2)(c2ccccc2)O1 (configuration not stated)		> 81.3	> 81.3
COC(=O)C(=O)C(C(=O)C(=O)Nc1cc([N+](=O)[O-])ccc1C#N)c1nc2ccccc2[nH]c1=O (configuration not stated)	inactive		
O=C(NCc1ccccc1)/C(=C/c1ccc2c(c1)OCO2)NC(=O)c1ccccc1		> 200	> 200
CN(C)/C(N)=N/C(N)=Nc1cccc(Cl)c1		> 200	83.2
COc1cccc(NC(=O)CC(=O)n2nc(C)c(N=Nc3ccccc3F)c2C)c1	inactive		
Cc1c(/C=N/NC(=S)Nc2ccc(Cl)cc2)c(=O)n(-c2ccccc2)n1C		> 200	> 200
O=C(Cc1ccccc1)N[C@@H]1COC(=O)C2CCCN2C(=O)[C@@H]2CCCN2C1=O (some centres not stated) (PhAc-[dS]-Pro-[ξP]; ester 1-C)		> 200	> 200
CC(=O)/C(=C/c1ccc(C#N)cc1)C(=O)c1ccccc1		> 95.5	16.6
CCOC(OC1=C(C#N)CCC1)C(C)[Se]c1ccccc1 (configuration not stated)		> 49	26.3
O=C1CCC2(c3ccc(F)cc3)Nc3cc(Cl)ccc3N12 (configuration not stated)	inactive		
C=CC(C)(C)C12CC3C(=O)N/C(=C\c4cnc[nH]4)C(=O)N3C1Nc1ccccc12 (configuration not stated)		> 200	91.2
COc1ccc(/C(=N/O)c2ccccc2-c2nc3ccccc3c(=O)n2-c2ccc(S(=O)(=O)Nc3ncccn3)cc2)cc1C		> 200	49

SMILES	outcome	EC50 [µM]	IC50 [µM]
CCOc1ccc(N=Nc2ccc3oc(=O)c(C(=O)Nc4ccc(OC)cc4)cc3c2)cc1		> 8.51	> 8.51
CC1(C)Oc2ccccc2OC1O (configuration not stated)		> 200	> 200
Cc1ccc2oc(=O)c(C#N)c(/C=C/c3cccc(Br)c3)c2c1		> 100	> 100
CC(=O)OC1C(CN2CCOC2=O)OC(n2cc(C)c(=O)[nH]c2=O)C1OC(C)=O (configuration not stated)		> 200	> 200
c1ccc(C2=Nc3ccccc3N=C3CCCC32)cc1 (configuration not stated)		> 200	> 200
O=C1CC2CCC(C1)S2		> 200	> 200
CCCCN(CC)C(=O)COc1cc2c(O)c3c(O)c(C)c4c(c13)C(=O)C(C)(O/C=C\C(OC)C(C)C(OC(C)=O)C(C)C(O)C(C)C(O)C(C)/C=C\C=C(\C)C(=O)N2)O4 (configuration not stated)	inactive		
CCCCOC(=O)C1OC12CCCCC2 (configuration not stated)		> 200	151
CC1=N/C(=C\c2ccccc2)C(=O)O1		> 20	> 20
CNC(=O)NCCc1c[nH]c2ccccc12		> 200	> 200
C=CC1C(=C)CCC2C1CCC1C(C)(C(=O)O)CCCC21C (configuration not stated)	inactive		
CSc1nc2c(c(=O)[nH]1)N=C(c1ccc(Cl)cc1)CC(c1ccccc1)N2 (configuration not stated)		> 200	33.1
CN(C)C1(C#N)CCC2(CC1)OCCO2	inactive		
Nc1ccc(N=Nc2ccc(-c3ccc(O)cc3)cc2)c2ccc(S(=O)(=O)O)cc12		7.94	> 200
O=C(/C=C/c1ccc(Cl)c(Cl)c1)c1ccc(F)cc1		> 1.86	> 1.86
Cc1c(C)n(COCCO)c2ncnc(N)c12		> 200	> 200
COc1ccc(NC(=O)CC(=O)N/N=C(/C)c2cc3cc(N=Nc4ccccc4Cl)ccc3oc2=O)cc1		> 9.77	> 9.77
CC(=O)OCC1OC(OC2=C(c3ccccc3)C(=O)C(OC3OC(COC(C)=O)C(OC(C)=O)C(OC(C)=O)C3OC(C)=O)=C(c3ccccc3)C2=O)C(OC(C)=O)C(OC(C)=O)C1OC(C)=O (configuration not stated)		> 33.9	5.89
O=C(O)CSc1n[nH]c(=S)c2nc[nH]c12		> 537	> 537
COc1ccc(-c2cc(C(=O)Nc3cc(C(F)(F)F)cc(C(F)(F)F)c3)c3ccccc3n2)cc1		> 14.8	> 14.8
CSc1nc2nc(C)c(C)nc2c(=O)[nH]1		> 1120	> 1120
COC1/C=C/OC2(C)Oc3c(C)c(O)c4c(O)c(c(/C=N/N5CC(C)(C)N(Cc6ccccc6)CC5(C)C)c(O)c4c3C2=O)NC(=O)C(C)=C/C=C/C(C)C(O)C(C)C(O)C(C)C(OC(C)=O)C1C (configuration not stated)		> 27.5	3.31

SMILES	outcome	EC50 [µM]	IC50 [µM]
CC(C)(C)Sc1nnc(SC(C)(C)C)c2c(=O)[nH]nc(SC(C)(C)C)c12	inactive		
CC(=O)c1cc([N+](=O)[O-])ccc1OCC(=O)O	inactive		
COC1=CC(=Nc2c(Cl)cc(Cl)cc2OC(=O)c2ccc([N+](=O)[O-])cc2)C=C(OC)C1=O	inactive		
Cc1ncc(CO)c(CO)c1OCC(O)CN1CCN(C(=O)c2ccccc2)CC1 (configuration not stated)		> 200	> 200
CCC1C/C(=N\N=C2CC(C)(C)NC(C)(C)C2)CC(C)(C)N1 (configuration not stated)		> 200	> 200
COC1(OC)/C(=C(\N)C=O)NC(C)(C)N1O	inactive		
N[C@H]1CCc2c1nc1c(c2-c2ccccc2)CC[C@@H]1N		> 200	83.2
CC1=NN2C(=O)C(c3ccccc3)SC2=NC(C)(C)C1 (configuration not stated)		> 457	> 457
O/N=C1/C(=C/c2ccc(F)cc2)CCCC1C(NO)c1ccc(F)cc1 (configuration not stated)		> 2.88	> 2.88
CC1CN=C(N(C(=O)Nc2ccccc2)C2CCCCC2)S1 (configuration not stated)	inactive		
CC1Nc2ccccc2NC1C=C(C#N)C#N (configuration not stated)		> 44.7	6.76
O=C1C2CN(Cc3ccccc3)CC2C(=O)N1c1ccccc1 (configuration not stated)		> 200	> 200
COC(=O)c1ccccc1CC(Cc1ccccc1)C(=O)OC (configuration not stated)	inactive		
COc1cc(-c2nc3sc(-c4ccc(O)c(OC)c4)nc3s2)ccc1O		83.2	> 200
NC(CCCCNC(=O)C(Cc1ccccc1)NC(=O)OCc1ccccc1)C(=O)NC(CCCCNC(=O)C(Cc1ccccc1)NC(=O)OCc1ccccc1)C(=O)NC(CCCCNC(=O)C(Cc1ccccc1)NC(=O)OCc1ccccc1)C(=O)NC(CCCCNC(=O)C(Cc1ccccc1)NC(=O)OCc1ccccc1)C(=O)NC(CCCCNC(=O)C(Cc1ccccc1)NC(=O)OCc1ccccc1)C(=O)NC(CCCCNC(=O)C(Cc1ccccc1)NC(=O)OCc1ccccc1)C(=O)O (configuration not stated)		> 50.1	> 50.1
CNC(=O)SC1=NS(=O)(=O)c2ccc(Cl)cc2N1		51.3	186
C=CCOC(C)n1c(C)cc(=O)n(C(C)OCC=C)c1=O (configuration not stated)		> 200	> 200
COc1ccc2cc3[n+](cc2c1O)CCc1cc2c(cc1-3)OCO2		> 347	6.03
COc1ccc2c(c1)[nH]c(=O)c1c3ccccc3[nH]c21		> 200	145
Cn1cc(NC(=O)c2cc(NC(=O)CCCCCCCCC(=O)Nc3cc(C(=O)Nc4cc(C(=O)NCCC(N)N)n(C)c4)n(C)c3)cn2C)cc1C(=O)NCCC(=N)N		> 28.8	12.6
O=C(/C=C/c1ccccc1O)c1ccccc1		> 60.3	> 60.3
CC1(C)C(=O)C2(N)CCC1C2 (configuration not stated)		> 200	> 200

SMILES	outcome	EC50 [µM]	IC50 [µM]
NC(=O)C(c1ccccc1)N1CCCCC1 (configuration not stated)	inactive		
ClC(Cl)(Cl)C1OCOC(C(Cl)(Cl)Cl)OCO1 (configuration not stated)		> 200	> 200
CC(C)N1C(C)[C@@H](c2ccccc2)O[P@@]1(=O)CC1=CCCCC1 (some centres not stated)	inactive		
O=C(CCC(=O)N/N=C/c1ccccc1O)N/N=C/c1ccccc1O	inactive		
N#C/C(=C/n1c(=S)[nH]c2ccccc21)C(N)=O		> 200	> 200
COC(=O)C(Cl)=C1CC1		> 1700	93.3
CN(C)c1ccc(/C=C/c2sc3ccccc3[n+]2C)cc1		> 47.9	0.575
CC1=C(C#N)C(=N)OC1(C)C1CC(=O)C=CC1=O (configuration not stated)		> 200	10.5
CC(=O)Nc1c(C#N)c2n(c1C(=O)O)CCC2		> 200	> 200
COc1ccc(C2C(Cl)C(=O)N2NC(=O)Cc2ccccc2)cc1OC (configuration not stated)		> 95.5	> 95.5
O=c1cn[nH]c2c(Br)cc(Br)cc12		> 70.8	> 70.8
Cc1ccc2c(c1)C(=S)N1CSCC1c1nncn1-2 (configuration not stated)		> 200	> 200
CCOC1(C)Nc2cc(OC)cc3c2N1C(=O)CCS3 (configuration not stated)		> 200	95.5
[C-]#[O+].[C-]#[O+].[C-]#[O+].[C-]#[O+].[Cr].c1ccc(P(CCP(CCP(c2ccccc2)c2ccccc2)c2ccccc2)CCP(c2ccccc2)c2ccccc2)cc1 (configuration not stated)		> 1.74	> 1.74
Cn1cnc([N+](=O)[O-])c1Sc1ccccc1N		> 525	61.7
O=C(Nc1ccc(F)cc1)C(=O)C(C(=O)c1ccccc1F)C1OC(=O)c2ccccc21 (configuration not stated)		> 302	18.2
COc1ccc(-c2ccccc2)cc1SSc1cc(-c2ccccc2)ccc1OC		> 200	178
COC1=NCN=C2SC=C(N)N=C12		> 1070	562
Cc1ccc2ccc(-c3cc4ccccc4s3)nc2c1	inactive		
CCOc1ccccc1NC(=O)/C(=N\NC(C)(C)C)C1C(=O)Nc2ccccc2S1=O (configuration not stated)		> 112	17.8
c1ccc2c(c1)cc(C1NCCc3[nH]cnc31)c1ccccc12 (configuration not stated)		> 24	15.1

From PubChem BioAssay AID179 (DTP/NCI, 2004)
